Experimental data taken from paper PMC11947619, “Molecular mechanism of Mad2 conformational conversion promoted by the Mad2‐interaction motif of Cdc20” (Protein Science : A Publication of the Protein Society, 2025).
Residues, ends and D or L forms follow the SMILES beside them.

Experiments:
[1] = target: T1, O‐Mad2^∆C10 (Homo sapiens, UniProt Q13257); assay: NMR titration / HSQC: Cdc20^MIM with O-Mad2^∆C10 (trapped open state); type: binding; settings: 25°C; for binding to Mad2^∆C10: NMR titration / HSQC, two-fold molar excess of peptide, spectra within 15 minutes (Figure S6)
T1 construct: His6-DoubleStrep-TEV (N); made in house
Excerpt: The cloning of human wild‐type Mad2 and the mutant Mad2^R133A by the USER® method (NEB) into the pRSFDuet‐1 vector (71341‐3, Sigma‐Aldrich) with a His6‐DoubleStrep‐TEV tag at its N‐terminus was described previously (Fischer et al., [2022]). For this study, Mad2 mutants were generated as follows. The Mad2^LL expression construct was generated from the wild‐type Mad2 expression vector (Fischer et al., [2022]) by replacing residues 109–117 (TAKDDSAPR) with GSG. Mad2^ΔC10 and Mad2^Δβ7/β8 were modified from wild‐type Mad2 expression construct by deleting residues 196–205 and 166–205, respectively. Mad2^LL/R133A was modified by substituting Ala for Arg133 from the Mad2^LL expression construct. Mad2^LL/ΔC10 was modified from Mad2^LL by deleting residues 196–205. Mad2^L13A/R133A was generated from the Mad2^R133A mutant. Site‐directed mutagenesis of Mad2 was completed using the QuikChangeTM Lightning Site‐Directed Mutagenesis Kit (Agilent) developed by Stratagene Inc. (La Jolla, CA).
All NMR data on Mad2 were acquired in a 5 mm tube at 25°C in 20 mM HEPES, pH 7.0, 100 mM NaCl, 1 mM TCEP, 5% D2O. Backbone assignment experiments and all spectra, unless otherwise denoted, were collected using an in‐house Bruker 800 MHz Avance III spectrometer, equipped with a triple resonance TCI CryoProbe. 2D spectra were acquired using BEST ^1H,^15N‐TROSY HSQC, with 16 scans and a recycle delay of 400 ms, giving an experimental time of 12 min per spectrum. A Bruker 950 MHz Avance III spectrometer (MRC Biomedical NMR Centre, Francis Crick Institute) was used for the residue conversion rate analysis and the characterization of Mad2 dimers. Most experiments, including all backbone experiments, were acquired with 100 μM samples; the residue‐specific conversion rate analysis and characterization of Mad2 dimers utilized 200 μM samples and 300 μM samples, respectively.
Mad2LL (grey), Mad2∆C10 (green) and Mad2LL/∆C10 (purple). […] 15N{1H}‐ heteronuclear NOE were measured at 298 K. Regions that are highly dynamic are highlighted in yellow. e. […]

[2] = target: T2, O‐Mad2^R133A (Homo sapiens, UniProt Q13257, R133A); settings: 100 μM O-Mad2^R133A, two-fold molar excess peptide, 25°C, 20 mM HEPES pH 7.0, 100 mM NaCl, 1 mM TCEP, 5% D2O; Trp75/Trp167 indole NH reporters; 12 min per spectrum; ref Fischer et al., [2022]; cited from earlier work
T2 construct: unable to collect equivalent data for full‐length O‐Mad2^R133A; His6-DoubleStrep-TEV (N); made in house
Description: In contrast, conversion took ~24 h in the absence of Cdc20^MIM‐111‐138 peptide (Fischer et al., [2022]) (Figures 2c and ...

T1 sequence (Q13257 1-195): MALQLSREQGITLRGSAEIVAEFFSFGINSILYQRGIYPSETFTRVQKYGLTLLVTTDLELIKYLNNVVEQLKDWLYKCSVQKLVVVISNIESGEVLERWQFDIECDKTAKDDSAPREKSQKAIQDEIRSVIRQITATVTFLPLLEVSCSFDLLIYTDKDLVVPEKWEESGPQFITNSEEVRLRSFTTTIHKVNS
T2 sequence (Q13257 whole entry R133A): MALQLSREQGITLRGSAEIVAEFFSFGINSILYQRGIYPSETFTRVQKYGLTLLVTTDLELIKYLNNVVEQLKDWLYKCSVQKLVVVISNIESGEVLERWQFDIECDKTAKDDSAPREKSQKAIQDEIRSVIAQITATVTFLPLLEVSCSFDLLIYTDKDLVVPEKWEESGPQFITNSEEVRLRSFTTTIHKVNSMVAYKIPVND

Compound	binding to Mad2^∆C10 [1]	O- to C-Mad2 conversion, in words ([1]; O-Mad2^∆C10 100 μM, two-fold molar excess peptide, 24 h time course)	time to complete Mad2 conversion [2]
CC[C@H](C)[C@H](NC(=O)[C@H](CCCCN)NC(=O)[C@H](C)NC(=O)[C@H](CCC(=O)O)NC(=O)[C@H](CCC(=O)O)NC(=O)[C@@H](NC(=O)[C@H](CC(=O)O)NC(=O)[C@@H](N)Cc1ccccc1)C(C)C)C(=O)N[C@@H](CC(C)C)C(=O)N[C@@H](CCCNC(=N)N)C(=O)N[C@@H](CC(C)C)C(=O)N[C@@H](CO)C(=O)NCC(=O)N[C@@H](CCCCN)C(=O)N1CCC[C@H]1C(=O)N[C@@H](CCC(N)=O)C(=O)N[C@@H](CC(N)=O)C(=O)N[C@@H](C)C(=O)N1CCC[C@H]1C(=O)N[C@@H](CCC(=O)O)C(=O)NCC(=O)N[C@@H](Cc1ccc(O)cc1)C(=O)N[C@@H](CCC(N)=O)C(=O)N[C@@H](CC(N)=O)C(=O)N[C@@H](CCCNC(=N)N)C(=O)N[C@@H](CC(C)C)C(=O)N[C@@H](CCCCN)C(=O)N[C@H](C(=O)N[C@@H](CC(C)C)C(=O)N[C@@H](Cc1ccc(O)cc1)C(=O)O)C(C)C [Cdc20^MIM‐123‐152] (H-FDVEEAKILRLSGKPQNAPEGYQNRLKVLY-OH; N-terminus and C-terminus assumed)	No binding	–	–
EHQKAWALNLNGFDVEEAKILRLSGKPQ [Cdc20^MIM‐111‐138, Cdc20^MIM peptide spanning Cdc20 residues 111–138]	No binding	eliminated	less than 30 min
